The text below walks through data of ChEMBL document CHEMBL4190176 (Medchemcomm, 2016).

The test addresses T1, Bifunctional epoxide hydrolase 2 (Homo sapiens, UniProt P34913).
T1 sequence (P34913 whole entry): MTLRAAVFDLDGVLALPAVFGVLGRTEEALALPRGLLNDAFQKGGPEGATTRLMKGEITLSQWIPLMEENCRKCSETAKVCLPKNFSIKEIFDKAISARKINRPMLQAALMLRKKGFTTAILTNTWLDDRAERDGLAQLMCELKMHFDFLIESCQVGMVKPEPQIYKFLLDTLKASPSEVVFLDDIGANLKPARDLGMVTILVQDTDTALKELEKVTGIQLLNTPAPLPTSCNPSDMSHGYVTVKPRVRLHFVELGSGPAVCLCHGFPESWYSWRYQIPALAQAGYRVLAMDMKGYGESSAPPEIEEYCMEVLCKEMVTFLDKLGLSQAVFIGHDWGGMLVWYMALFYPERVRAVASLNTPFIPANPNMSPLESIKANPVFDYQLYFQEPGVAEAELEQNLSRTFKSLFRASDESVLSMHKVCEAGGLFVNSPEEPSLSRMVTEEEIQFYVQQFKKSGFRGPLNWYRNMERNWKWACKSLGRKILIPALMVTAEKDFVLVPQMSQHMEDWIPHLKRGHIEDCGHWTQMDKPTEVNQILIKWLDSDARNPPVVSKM
Briefly: Inhibition of recombinant human soluble epoxide hydrolase using PHOME as substrate incubated for 5 mins followed by substrate addition by fluorescence assay.

The structures appear in SMILES notation. pIC50: −log10 of the molar value.

For orientation: pIC50 means the negative decadic logarithm of the IC50, by convention in mol/L. `CCOC(=O)C1=C(c2ccccc2)NC(=O)NC1c1ccc(NC(=O)c2ccc(OC)cc2)cc1` (stereo not drawn): the pIC50 is 8.74.

With `CCOC(=O)C1=C(c2ccccc2)NC(=O)NC1c1ccc(NC(=O)c2ccc([N+](=O)[O-])cc2)cc1` (stereo not drawn), the negative-log IC50 (pIC50) is 8.70.

On to `CCOC(=O)C1=C(c2ccccc2)NC(=O)NC1c1ccc(NC(=O)c2ccc(Cl)cc2)cc1` (stereo not drawn), for which the pIC50 is 9.32.

On to `CCOC(=O)C1=C(c2ccccc2)NC(=O)NC1c1ccc(NC(=O)c2ccccc2)cc1` (stereo not drawn), for which the pIC50 was 8.91.

With `CCOC(=O)C1=C(c2ccccc2)NC(=O)NC1c1ccc(NC(=O)c2ccc(F)cc2)cc1` (stereo not drawn), the pIC50 was 9.02.

Take `CCOC(=O)C1=C(c2ccccc2)NC(=O)NC1c1ccc(NC(=O)c2ccc(C)cc2)cc1` (stereo not drawn): the pIC50 is 9.32.

Take `CCOC(=O)C1=C(c2ccccc2)NC(=O)NC1c1ccc(NC(=O)c2ccccc2C(=O)O)cc1` (stereo not drawn): the pIC50 is 8.72.

Regarding `CCOC(=O)C1=C(c2ccccc2)NC(=O)NC1c1ccc(NC(=O)CCC(=O)O)cc1` (stereo not drawn), the pIC50 was 8.65.
